# Measurements from ChEMBL document CHEMBL5260834, “Benzomorphan skeleton, a versatile scaffold for different targets: A comprehensive review” (Eur J Med Chem, 2018).
# Legend:
# [1] = target: T1, Sigma non-opioid intracellular receptor 1 (Cavia porcellus, UniProt Q60492); assay: Displacement of [3H]-(+)-pentazocine from sigma1 receptor in guinea pig brain membrane assessed as inhibition constant measured for 150 mins in presence of haloperidol; format: cell membranes
# [2] = target: T2, Sigma intracellular receptor 2 (Homo sapiens, UniProt Q5BJF2); assay: Displacement of [3H]DTG from sigma 2 receptor (unknown origin) assessed as inhibition constant incubated for 120 mins in presence of (+)-SKF10047 by radioligand binding assay
# T2 sequence (Q5BJF2 whole entry): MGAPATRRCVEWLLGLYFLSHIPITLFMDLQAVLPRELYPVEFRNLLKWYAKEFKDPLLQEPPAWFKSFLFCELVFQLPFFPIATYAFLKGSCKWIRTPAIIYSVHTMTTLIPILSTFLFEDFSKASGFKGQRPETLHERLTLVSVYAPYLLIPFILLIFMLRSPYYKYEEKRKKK
# [3] = target: T3, Sigma non-opioid intracellular receptor 1 (Homo sapiens, UniProt Q99720); assay: Agonist activity at sigma1 receptor (unknown origin); conditions: filed as agonist
# T3 sequence (Q99720 whole entry): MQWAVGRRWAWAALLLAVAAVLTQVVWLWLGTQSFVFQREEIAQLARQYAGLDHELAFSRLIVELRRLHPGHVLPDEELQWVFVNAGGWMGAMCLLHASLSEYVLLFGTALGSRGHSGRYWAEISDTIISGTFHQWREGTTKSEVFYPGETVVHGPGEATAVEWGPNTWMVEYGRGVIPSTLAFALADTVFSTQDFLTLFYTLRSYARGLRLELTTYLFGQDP
# [4] = target: Mu-type opioid receptor (Rattus norvegicus, UniProt P33535); assay: Displacement of [ 3H]-naloxone from rat brain membrane mu opioid receptor assessed as inhibition constant by radioligand binding assay; format: cell membranes
# Chain of Mu-type opioid receptor (Rattus norvegicus, UniProt P33535) (P33535 whole entry): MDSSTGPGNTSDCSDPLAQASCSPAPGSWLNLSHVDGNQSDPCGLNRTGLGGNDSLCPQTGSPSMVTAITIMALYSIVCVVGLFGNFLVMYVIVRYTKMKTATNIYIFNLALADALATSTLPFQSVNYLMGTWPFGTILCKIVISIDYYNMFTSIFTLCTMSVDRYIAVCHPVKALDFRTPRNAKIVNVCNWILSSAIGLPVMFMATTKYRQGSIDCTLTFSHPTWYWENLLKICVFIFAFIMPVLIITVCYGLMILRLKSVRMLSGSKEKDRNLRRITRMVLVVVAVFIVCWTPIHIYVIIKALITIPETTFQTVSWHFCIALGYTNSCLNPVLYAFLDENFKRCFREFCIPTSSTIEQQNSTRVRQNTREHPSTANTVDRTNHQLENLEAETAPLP
# [5] = target: Delta-type opioid receptor (Homo sapiens, UniProt P41143); assay: Displacement of [3H]-Diprenorphine from DOR receptor (unknown origin) assessed as inhibition constant
# Chain of Delta-type opioid receptor (P41143 whole entry): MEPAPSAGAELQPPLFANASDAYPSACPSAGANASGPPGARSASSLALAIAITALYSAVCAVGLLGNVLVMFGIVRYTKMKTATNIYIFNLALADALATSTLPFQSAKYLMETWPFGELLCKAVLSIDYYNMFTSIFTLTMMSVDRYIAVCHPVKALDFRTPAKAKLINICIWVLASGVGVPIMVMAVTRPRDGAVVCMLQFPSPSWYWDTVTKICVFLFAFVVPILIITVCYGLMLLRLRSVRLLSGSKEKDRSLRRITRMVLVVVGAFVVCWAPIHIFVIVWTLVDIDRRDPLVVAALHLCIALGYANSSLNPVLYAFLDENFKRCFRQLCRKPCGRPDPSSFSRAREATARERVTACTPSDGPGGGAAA
# [6] = target: T4, Kappa-type opioid receptor (Homo sapiens, UniProt P41145); assay: Displacement of [3H]-U69593 from KOR receptor (unknown origin) assessed as inhibition constant
# T4 sequence (P41145 whole entry): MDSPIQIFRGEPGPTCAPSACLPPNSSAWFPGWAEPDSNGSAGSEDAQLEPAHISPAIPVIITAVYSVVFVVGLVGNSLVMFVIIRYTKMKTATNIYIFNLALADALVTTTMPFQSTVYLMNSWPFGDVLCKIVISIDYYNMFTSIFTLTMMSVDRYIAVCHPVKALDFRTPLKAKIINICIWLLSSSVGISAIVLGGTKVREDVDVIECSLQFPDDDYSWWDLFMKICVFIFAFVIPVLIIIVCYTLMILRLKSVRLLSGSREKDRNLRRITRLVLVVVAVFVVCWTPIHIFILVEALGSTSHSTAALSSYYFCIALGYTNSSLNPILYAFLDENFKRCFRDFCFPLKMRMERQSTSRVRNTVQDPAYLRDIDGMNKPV
# [7] = target: T5, Mu-type opioid receptor (Homo sapiens, UniProt P35372); assay: Displacement of [3H]-Diprenorphine from MOR receptor (unknown origin) assessed as inhibition constant
# T5 sequence (P35372 whole entry): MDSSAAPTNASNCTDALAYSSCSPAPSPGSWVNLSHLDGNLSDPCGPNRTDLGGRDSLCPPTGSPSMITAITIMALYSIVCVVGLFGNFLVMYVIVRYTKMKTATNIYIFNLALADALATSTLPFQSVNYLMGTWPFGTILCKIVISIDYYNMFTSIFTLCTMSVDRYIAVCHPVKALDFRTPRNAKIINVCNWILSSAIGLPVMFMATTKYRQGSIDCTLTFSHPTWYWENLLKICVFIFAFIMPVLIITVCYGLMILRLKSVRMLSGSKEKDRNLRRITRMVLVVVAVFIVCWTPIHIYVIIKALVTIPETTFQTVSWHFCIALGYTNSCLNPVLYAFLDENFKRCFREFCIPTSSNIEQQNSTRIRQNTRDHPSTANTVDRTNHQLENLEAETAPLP
# [8] = target: Glutathione hydrolase 1 proenzyme (Homo sapiens, UniProt P19440); assay: Inhibition of human GGT1
# Chain of Glutathione hydrolase 1 proenzyme (P19440 1-380 limits assumed): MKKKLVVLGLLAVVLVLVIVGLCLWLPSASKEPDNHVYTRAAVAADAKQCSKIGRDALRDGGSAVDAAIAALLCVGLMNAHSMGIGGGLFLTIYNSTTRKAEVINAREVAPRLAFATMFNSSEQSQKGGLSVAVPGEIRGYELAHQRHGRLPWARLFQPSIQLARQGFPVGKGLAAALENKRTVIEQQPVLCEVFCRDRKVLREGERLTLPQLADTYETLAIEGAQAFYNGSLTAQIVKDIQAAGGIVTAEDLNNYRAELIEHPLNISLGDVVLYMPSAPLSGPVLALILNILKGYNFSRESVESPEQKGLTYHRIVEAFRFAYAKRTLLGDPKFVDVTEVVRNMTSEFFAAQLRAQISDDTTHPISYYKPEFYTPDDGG
# Chain of Glutathione hydrolase 1 proenzyme (P19440 381-569 limits assumed): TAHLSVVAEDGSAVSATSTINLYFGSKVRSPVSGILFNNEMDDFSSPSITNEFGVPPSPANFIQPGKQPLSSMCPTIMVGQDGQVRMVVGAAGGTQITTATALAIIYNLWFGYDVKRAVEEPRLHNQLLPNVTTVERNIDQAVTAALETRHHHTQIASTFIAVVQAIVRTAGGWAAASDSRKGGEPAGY
# [9] = Displacement of 3[H]BTX from rat cerebral cortex sodium channel assessed as inhibition constant; format: tissue-based
# [10] = system: Mus musculus; assay: Anticonvulsant activity in mouse assessed as protection against maximal electroshock seizures […] by maximum electroshock seizure test; format: functional
# [11] = Ratio of Ki for displacement of [3H]DTG from sigma 2 receptor (unknown origin) assessed as inhibition constant in presence of haloperidol to Ki for displacement of [3H]-(+)-pentazocine from sigma1 receptor in guinea pig brain membrane assessed as inhibition constant; format: cell membranes
# [12] = target: T2, Sigma intracellular receptor 2; assay: Displacement of [3H]DTG from sigma 2 receptor (unknown origin) assessed as inhibition constant in presence of haloperidol measured for 120 mins by scintillation counting analysis
# [13] = target: T1, Sigma non-opioid intracellular receptor 1; assay: Displacement of [3H]-(+)-pentazocine from sigma1 receptor in guinea pig brain membrane assessed as inhibition constant measured for 150 mins; format: cell membranes
# [14] = target: T1, Sigma non-opioid intracellular receptor 1; assay: Displacement of [3H]-(+)-pentazocine from sigma1 receptor in guinea pig brain membrane assessed as inhibition constant measured after 120 mins by scintillation counting method; format: cell membranes
# [15] = target: T5, Mu-type opioid receptor; assay: Displacement of [3H]-DAMGO from human MOR receptor assessed as inhibition constant by cheng-prusoff equation assay
# [16] = target: T3, Sigma non-opioid intracellular receptor 1; assay: Displacement of [3H]-(+)-pentazocine from sigma1 receptor (unknown origin) assessed as inhibition constant
# [17] = system: Mus musculus; assay: Anticonvulsant activity in mouse assessed as protection against maximal electroshock seizures at 5 mg/kg, sc by maximum electroshock seizure test; format: functional; conditions: read-out: ID50 (the source's name)
# [18] = target: T1, Sigma non-opioid intracellular receptor 1; assay: Displacement of [3H]-(+)-pentazocine from sigma1 receptor in guinea pig brain membrane assessed as inhibition constant; format: cell membranes
# [19] = Ratio of Ki for displacement of [3H]-(+)-pentazocine from sigma1 receptor in guinea pig brain membrane assessed as inhibition constant to Ki for displacement of [3H]-(+)-pentazocine from sigma1 receptor in guinea pig brain membrane assessed as inhibition constant; format: cell membranes; set-up: reference not given here
# [20] = target: T6, Sigma intracellular receptor 2 (Rattus norvegicus, UniProt Q5U3Y7); assay: Displacement of [3H]DTG from sigma 2 receptor in rat liver membranes assessed as inhibition constant presence of dextrallorphan; format: cell membranes, Membrane
# T6 sequence (Q5U3Y7 whole entry): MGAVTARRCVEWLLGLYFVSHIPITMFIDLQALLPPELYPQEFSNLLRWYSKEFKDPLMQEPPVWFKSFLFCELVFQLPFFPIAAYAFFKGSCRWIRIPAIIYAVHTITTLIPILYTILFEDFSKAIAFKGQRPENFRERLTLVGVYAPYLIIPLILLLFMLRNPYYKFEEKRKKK
# [21] = target: T2, Sigma intracellular receptor 2
# Description: Inhibition of sigma 2 receptor (unknown origin)
# [22] = target: T2, Sigma intracellular receptor 2; assay: Displacement of [3H]DTG from sigma 2 receptor (unknown origin) assessed as inhibition constant in presence of (+)-SKF10047 by radioligand binding assay
# [23] = target: T4, Kappa-type opioid receptor; assay: Displacement of [3H]-diprenorphine from KOR receptor (unknown origin) assessed as inhibition constant in presence of D-Ala-N-MePhe-Gly-ol-enkephalin and D-Ala-DLeu-enkephalin
# [24] = target: T6, Sigma intracellular receptor 2; assay: Displacement of [3H]DTG from sigma 2 receptor in rat liver membranes assessed as inhibition constant presence of haloperidol by scintillation counting analysis; format: cell membranes, Membrane
# [25] = Ratio of Ki for displacement of [3H]DTG from sigma 2 receptor in rat liver membranes assessed as inhibition constant presence of haloperidol by scintillation counting analysis to Ki for displacement of [3H]-(+)-pentazocine from sigma 1 receptor in guinea pig brain membrane assessed as inhibition constant in presence of haloperidol; format: cell membranes
# [26] = target: T3, Sigma non-opioid intracellular receptor 1; assay: Inhibition of sigma 1 receptor (unknown origin)
# [27] = Ratio of Ki for displacement of[3H]-DAMGO from human MOR receptor to Ki for displacement of [3H]-(+)-pentazocine from sigma1 receptor in guinea pig brain membrane; format: cell membranes
# [28] = target: T2, Sigma intracellular receptor 2; assay: Displacement of [3H]DTG from sigma 2 receptor (unknown origin) assessed as inhibition constant
# [29] = Ratio of Ki for displacement of [3H]DTG from sigma 2 receptor (unknown origin) to Ki for displacement of [3H]-(+)-pentazocine from sigma1 receptor in guinea pig brain membrane; format: cell membranes
# T1 sequence (Q60492 whole entry): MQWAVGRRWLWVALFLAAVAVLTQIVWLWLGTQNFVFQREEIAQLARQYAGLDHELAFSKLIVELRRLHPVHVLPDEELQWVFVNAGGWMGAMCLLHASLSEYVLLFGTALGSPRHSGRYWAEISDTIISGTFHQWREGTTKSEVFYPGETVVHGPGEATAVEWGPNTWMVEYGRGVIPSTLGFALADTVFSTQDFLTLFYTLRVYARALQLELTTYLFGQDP
structure (smiles),measurement,setting,value
C[C@@H]1[C@@H]2Cc3ccc(O)cc3[C@]1(C)CCN2CCN1CCCCC1,Ki,[1],0.0096 µM
same,Ki,[2],0.114 µM
same,ED50,[3],0.88 mg/kg
same,Ki,[4],12 µM
COC(=O)[C@]1(c2ccccc2)C[C@@H]1CN1CC[C@]2(C)c3cc(O)ccc3C[C@@H]1[C@@H]2C,Ki,[5],> 25 µM
same,Ki,[6],0.24 µM
same,Ki,[7],> 25 µM
CO[C@@H](C)CN1CC[C@@]2(C)c3cccc(O)c3C[C@@H]1C2(C)C,IC50,[8],0.039 µM
same,Ki,[9],0.789 µM
same,ED50,[10],1 mg/kg
C[C@@H]1[C@@H]2Cc3ccc(N(C)C)cc3[C@]1(C)CCN2Cc1ccccc1,Ratio Ki,[11],150
same,Ki,[12],0.258 µM
same,Ki,[13],0.00175 µM
C[C@@H]1[C@@H]2Cc3ccc(O)cc3[C@]1(C)CCN2Cc1ccc(F)cc1,Ki,[14],0.00145 µM
C=CCN1CC[C@@]2(C)c3cc(O)ccc3C[C@H]1[C@H]2C,Ki,[5],> 1 µM
same,Ki,[15],> 10 µM
same,Ki,[6],> 1 µM
same,Ki,[16],0.169 µM
same,Ki,[7],> 1 µM
C[C@@H](CN1CC[C@@]2(C)c3cccc(O)c3C[C@@H]1C2(C)C)OCc1ccccc1 [CROBENETINE],IC50,[8],0.322 µM
same,Ki,[9],0.043 µM
same,ED50,[17],6.1 mg/kg
COC(=O)[C@@]1(c2ccccc2)C[C@H]1CN1CC[C@@]2(C)c3cc(O)ccc3C[C@H]1[C@H]2C,Ki,[5],> 1 µM
same,Ki,[6],> 1 µM
same,Ki,[16],0.075 µM
same,Ki,[7],> 1 µM
C[C@@H]1[C@@H]2Cc3ccc(O)c(Cl)c3[C@]1(C)CCN2Cc1ccccc1,Ki,[18],0.00172 µM
same,Ratio Ki,[19],440
same,Ki,[20],0.764 µM
CC(C)=CCN1CC[C@@]2(C)c3cc(F)ccc3C[C@H]1[C@H]2C,Ratio Ki,[11],104
same,Ki,[12],0.154 µM
same,Ki,[13],0.00148 µM
COC(=O)[C@]1(c2ccc(Cl)cc2)C[C@@H]1CN1CC[C@]2(C)c3cc(O)ccc3C[C@@H]1[C@@H]2C,Ki,[5],> 25 µM
same,Ki,[6],0.00041 µM
same,Ki,[16],1.05 µM
same,Ki,[7],> 25 µM
CC(C)=CCN1CC[C@@]2(C)c3c(ccc(O)c3Cl)C[C@H]1[C@H]2C,Ki,[18],0.00262 µM
same,Ki,[20],4.96 µM
C/C=C/CN1CCN(c2ccc3c(c2)[C@H]2C[C@@H]3CCN2C(=O)OCc2ccccc2)CC1,Ki,[21],0.016 µM
C[C@@H]1[C@@H]2Cc3ccccc3[C@]1(C)CCN2CCN(C)c1ccccc1,Ki,[22],0.157 µM
same,Ki,[23],> 10 µM
same,Ki,[16],0.091 µM
CC(C)=CCN1CCN(c2ccc3c(c2)[C@H]2C[C@@H]3CCN2C(=O)OCc2ccccc2)CC1,Ki,[21],0.023 µM
COC(=O)[C@]1(c2ccccc2)C[C@@H]1CN1CC[C@@]2(C)c3cc(O)ccc3C[C@H]1[C@H]2C,Ki,[5],> 1 µM
same,Ki,[6],> 1 µM
same,Ki,[16],0.0667 µM
same,Ki,[7],> 25 µM
CC(C)[C@@H]1[C@@H]2CCN(Cc3ccccc3)[C@@H]1Cc1ccccc12,Ki,[24],0.133 µM
same,Ki,[1],0.0317 µM
same,Ratio Ki,[25],4
C=CCCCCN1CC[C@]2(C)c3cc(O)ccc3C[C@@H]1[C@@H]2C,Ki,[26],0.08 µM
C=CCCCN1CC[C@]2(C)c3cc(O)ccc3C[C@@H]1[C@@H]2C,Ki,[26],0.18 µM
C[C@@H]1[C@@H]2Cc3ccc(O)c(Br)c3[C@]1(C)CCN2Cc1ccccc1,Ki,[18],0.00175 µM
same,Ratio Ki,[19],200
same,Ki,[20],0.346 µM
C[C@@H]1[C@@H]2Cc3ccc(O)cc3[C@]1(C)CCN2CCN1CCCCCC1,Ki,[1],0.0201 µM
same,Ki,[2],0.151 µM
same,Ki,[4],9.13 µM
CC(C)=CCN1CC[C@@]2(C)c3c(ccc(O)c3Br)C[C@H]1[C@H]2C,Ki,[18],0.00249 µM
same,Ki,[20],0.283 µM
C[C@@H]1[C@@H]2Cc3ccccc3[C@]1(C)CCN2CCN1CCCC1,Ki,[22],0.042 µM
same,Ki,[23],6.4 µM
same,Ki,[16],0.034 µM
CC[C@@H]1[C@@H]2CCN(Cc3ccccc3)[C@@H]1Cc1ccccc12,Ki,[24],0.115 µM
same,Ki,[1],0.00336 µM
same,Ratio Ki,[25],34
C[C@@H]1[C@@H]2CCN(Cc3ccccc3)[C@@H]1Cc1ccccc12,Ki,[24],0.131 µM
same,Ki,[1],0.00096 µM
same,Ratio Ki,[25],136
C[C@@H]1[C@@H]2Cc3ccccc3[C@]1(C)CCN2CCN1CCCCC1,Ki,[22],0.13 µM
same,Ki,[23],> 10 µM
same,Ki,[16],0.02 µM
C[C@@H]1[C@@H]2Cc3ccc(O)cc3[C@]1(C)CCN2CCNc1ccccc1,Ki,[1],0.0059 µM
same,Ki,[2],0.111 µM
same,Ki,[4],0.0798 µM
C=CCN1CC[C@]2(C)c3cc(O)ccc3C[C@@H]1[C@@H]2C,Ki,[26],3.2 µM
C[C@@H]1[C@@H]2Cc3ccc(O)cc3[C@]1(C)CCN2CCN(C)c1ccccc1,Ki,[1],0.0056 µM
same,Ki,[2],0.124 µM
same,Ki,[4],0.0288 µM
C[C@@H]1[C@@H]2Cc3ccc(O)cc3[C@]1(C)CCN2CCN1CCCC1,Ki,[1],0.0074 µM
same,Ki,[2],0.26 µM
same,Ki,[4],3.8 µM
C[C@@H]1[C@@H]2Cc3ccc(O)cc3[C@]1(C)CCN2Cc1ccccc1,Ratio Ki,[27],2400
same,Ki,[15],1.61 µM
same,Ki,[28],1.71 µM
same,Ratio Ki,[29],2600
same,Ki,[14],0.00067 µM
C[C@@H]1[C@@H]2Cc3ccccc3[C@]1(C)CCN2CCNc1ccccc1,Ki,[22],0.144 µM
same,Ki,[23],6.5 µM
same,Ki,[16],0.021 µM
C[C@@H]1[C@@H]2Cc3ccc(O)cc3[C@]1(C)CCN2CCN1CCOCC1,Ki,[1],0.0134 µM
same,Ki,[2],0.3 µM
same,ED50,[3],0.82 mg/kg
same,Ki,[4],8.17 µM
C=CCCN1CC[C@]2(C)c3cc(O)ccc3C[C@@H]1[C@@H]2C,Ki,[26],0.62 µM
CC(C)=CCN1CC[C@@]2(C)c3cc(O)ccc3C[C@H]1[C@H]2C,Ki,[4],2.37 µM
C[C@@H]1[C@@H]2Cc3cc(I)c(O)cc3[C@]1(C)CCN2Cc1ccccc1,Ki,[18],0.231 µM
same,Ki,[20],0.597 µM
COC(=O)C1(c2ccccc2)CC1CN1CC[C@@]2(C)c3cc(O)ccc3C[C@H]1[C@H]2C (mixture of isomers),Ki,[5],> 1 µM
same,Ki,[6],> 1 µM
same,Ki,[16],1.38 µM
same,Ki,[7],> 1 µM
C[C@@H]1[C@@H]2Cc3ccc(O)cc3[C@]1(C)CCN2Cc1ccccc1F,Ki,[14],0.00097 µM
C[C@@H]1[C@@H]2Cc3ccc(N)cc3[C@]1(C)CCN2Cc1ccccc1,Ratio Ki,[11],570
same,Ki,[12],0.832 µM
same,Ki,[13],0.00147 µM
